Reference: paper PMC2810868 (Nature, 2009)

What was measured:
PYL2 = target: T1, PYL2 (Arabidopsis thaliana, UniProt O80992); assay: crystal structure of PYL2-ABA; format: biochemical
T1 sequence (O80992 14-188): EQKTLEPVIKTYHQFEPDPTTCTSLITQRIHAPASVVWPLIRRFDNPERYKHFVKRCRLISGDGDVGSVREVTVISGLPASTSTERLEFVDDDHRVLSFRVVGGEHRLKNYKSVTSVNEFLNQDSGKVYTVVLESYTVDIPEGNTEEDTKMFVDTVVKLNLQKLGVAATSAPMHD
T1 sequence (Q9CAJ0 172-511 partner): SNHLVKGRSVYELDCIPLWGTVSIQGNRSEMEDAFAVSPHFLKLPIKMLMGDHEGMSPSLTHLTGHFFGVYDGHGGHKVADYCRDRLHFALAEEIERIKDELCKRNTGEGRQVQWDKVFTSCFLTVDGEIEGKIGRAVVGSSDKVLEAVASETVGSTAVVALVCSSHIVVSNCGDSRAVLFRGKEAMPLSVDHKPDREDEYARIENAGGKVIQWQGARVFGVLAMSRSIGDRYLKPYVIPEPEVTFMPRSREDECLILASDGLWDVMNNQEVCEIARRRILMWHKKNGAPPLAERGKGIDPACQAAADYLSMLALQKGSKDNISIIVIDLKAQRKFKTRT

PYR1(H115A) = target: T2, PYR1(H115A) (Arabidopsis thaliana, UniProt O49686, H115A); assay: 1H-15N HSQC NMR with and without S-ABA; format: binding
T2 sequence (O49686 1-191 H115A): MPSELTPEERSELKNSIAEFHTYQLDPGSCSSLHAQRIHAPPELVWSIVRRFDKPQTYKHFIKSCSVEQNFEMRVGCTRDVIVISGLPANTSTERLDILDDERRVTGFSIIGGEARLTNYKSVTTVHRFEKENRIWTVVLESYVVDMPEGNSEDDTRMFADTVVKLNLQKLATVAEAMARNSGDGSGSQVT

CC1=CC(=O)CC(C)(C)C1(O)/C=C/C(C)=C\C(=O)O (centres unmarked) [S-ABA]
IC50 (PYL2): 150 nM
1H-15N HSQC NMR with and without S-ABA (PYR1(H115A)): ABA binding is unaltered by the H115A mutation in the PYR1 latch.
